The text below walks through data of patent US20250066351A1, “PYRAZOLO[1,5-A]PYRIDIN-2,3-YL AMIDES AS KV7 CHANNEL ACTIVATORS” (Biohaven Therapeutics Ltd., priority 2022, published 2025).

The target of this assay is T1, hKv7.2/7.3 (Homo sapiens, UniProt O43525+O43526).
T1 construct: host or cells: HEK cells, tetracycline-inducible expression
The assay is described as follows: Kv7.2/7.3 Activation Assay, QPatch planar patch-clamp single concentration screen. Particulars: increase in current over baseline, Kv7.2/Kv7.3 co-expressing HEK cells, compound concentration 3 μM, steady-state current at end of 2 s pulse to −30 mV. The class given is cell-based. On the procedure: The ability of compounds to potentiate K-currents in Kv7.2/7.3 containing HEK cells was assessed using planar patch-clamp on the QPatch automated screening platform.
Cell Line: The hKv7.2/7.3 cell line was obtained from Chantest (Cleveland, OH 44128) cat. #CT6147. These HEK cells will express the Kv7.2/7.3 ion channels when induced.
Cell Culture: Cells were maintained in a media containing DMEM/F12; 50/50 (GIBCO cat. #11330), 10% Fetal Bovine Serum (FBS) (GIBCO cat. #26140), 100 units/mL Penicillin-Streptomycin (GIBCO cat. #15140), 0.005 mg/mL Blasticidin (INVIVOGEN cat. #ant-bl-1), 0.5 mg/mL Geneticin (GIBCO cat. #10131), 0.1 mg/mL Zeocin (GIBCO cat. #R25001). Cells used in the electrophysiology assay were maintained in a media without Blasticidin, Geneticin and Zeocin for 2 days and channel expression was induced by adding tetracycline (BIOLINE cat. #BIO-87030) at a final concentration of […]. Cells were grown in T-175 flask to ˜75% confluency. Currents were recorded 24 hours after channel induction.
Compound Plates: Test compounds were prepared by performing serial dilutions on a Biomek NX^P (BECKMAN COULTER). Final dilutions were made in external recording solution with a final DMSO concentration of 0.1% DMSO. For single concentration screens each plate had 10 μM retigabine as a positive control and 0.1% DMSO as a negative control.
Electrophysiology: On the day of the experiment cells were washed with Hank's Balanced Salt Solution (HBBS) (GIBCO cat. #14175) and harvested with Tryple (GIBCO cat. #12604). Cells were then centrifuged at 2000 rpm for 5 minutes and resuspended in CHO—S-SFM (GIBCO cat. #12052) at […]. Cells were stirred for 30 minutes before experiments were started. External recording solution contained (in mM): NaCl (145), KCl (4), CaCl2 (2), MgCl2 (1), HEPES (10) and Glucose (10); pH was adjusted to 7.4 with NaOH and the osmolarity was adjusted to 300-305 mOsM with sucrose if necessary. Internal solution contained (in mM): KCl (125), KF (10), EGTA (5), Na2ATP (5), MgCl2 (3.2), HEPES (5); pH was adjusted to 7.2 with KOH and the osmolarity was adjusted to 298-302 mOsM with sucrose.
Potassium channel activity was measured on the QPatch HTX (Sophion Bioscience) using QPlates with 48-wells/plate. Each cell was taken as an independent experiment and only one compound was tested per well. Potassium channel activity was elicited by holding at −80 mV and stepping to −30 mV for 2 s followed by a 100 ms pulse to −120 mV.
Single concentration screen: Baseline conditions were obtained by recording 5 sweeps in the external solution only, this was repeated for three applications of the external solution. The effect of test compounds on elicited current was then assessed by recording 5 sweeps in the presence of a 3 μM compound solution. The steady-state current at the end of the 2 s pulse to −30 mV was measured to determine the fold increase from baseline.
In general terms: Patch clamp records ionic current or voltage across a cell membrane.
In the case of `CC(C)(C)CC(=O)Nc1nn2ccccc2c1C1CCC1` [Example 1, N-(3-cyclobutylpyrazolo[1,5-a]pyridin-2-yl)-3,3-dimethylbutanamide], the “QPatch Kv7.2/7.3 Activity” value is listed as “+ (2.0-3.99 (+))”.
The result for `CC(C)(C)CC(=O)Nc1nn2ccc(C(F)(F)F)cc2c1C1CCC1` [Example 2, N-(3-cyclobutyl-5-(trifluoromethyl)pyrazolo [1,5-a]pyridin-2-yl)-3,3-dimethylbutanamide] reads “+ (2.0-3.99 (+))”.
On to `O=C(CC(C(F)(F)F)C(F)(F)F)Nc1nn2ccccc2c1C1CCC1` [Example 4, N-(3-cyclobutylpyrazolo[1,5-a]pyridin-2-yl)-4,4,4-trifluoro-3-(trifluoromethyl) butanamide], for which the “QPatch Kv7.2/7.3 Activity” value is recorded as “+/− (1.2-1.99-fold (+/−))”.
For `O=C(CC(C(F)(F)F)C(F)(F)F)Nc1nn2ccc(C(F)(F)F)cc2c1C1CCC1` [Example 5, N-(3-cyclobutyl-5-(trifluoromethyl)pyrazolo [1,5-a]pyridin-2-yl)-4,4,4-trifluoro-3-(trifluoromethyl) butanamide] the value was “+/− (1.2-1.99-fold (+/−))”; for `CC(C)[C@H](C)C(=O)Nc1nn2ccccc2c1C1CCC1` [Example 6, (S)-N-(3-cyclobutylpyrazolo[1,5-a]pyridin-2-yl)-2,3-dimethylbutanamide], “+ (2.0-3.99 (+))”.
The result for `CC(C)[C@H](C)C(=O)Nc1nn2ccc(C(F)(F)F)cc2c1C1CCC1` [Example 7, (S)-N-(3-cyclobutyl-5-(trifluoromethyl)pyrazolo [1,5-a]pyridin-2-yl)-2,3-dimethylbutanamide] reads “+ (2.0-3.99 (+))”.
The result for `CC(C)[C@H](C)C(=O)Nc1nn2ccc(C#N)cc2c1C1CCC1` [Example 8, (S)-N-(5-cyano-3-cyclobutylpyrazolo[1,5-a]pyridin-2-yl)-2,3-dimethylbutanamide] reads “+ (2.0-3.99 (+))”; that for `CC(C)(O)CC(=O)Nc1nn2ccccc2c1C1CCC1` [Example 9, N-(3-cyclobutylpyrazolo[1,5-a]pyridin-2-yl)-3-hydroxy-3-methylbutanamide], “− (<1.2-fold (−))”; that for `CC(C)(O)CC(=O)Nc1nn2ccc(C(F)(F)F)cc2c1C1CCC1` [Example 10, N-(3-cyclobutyl-5-(trifluoromethyl)pyrazolo [1,5-a]pyridin-2-yl)-3-hydroxy-3-methylbutanamide], “+ (2.0-3.99 (+))”.
`CC(C)(O)CC(=O)Nc1nn2ccc(C#N)cc2c1C1CCC1` [Example 11, N-(5-cyano-3-cyclobutylpyrazolo[1,5-a]pyridin-2-yl)-3-hydroxy-3-methylbutanamide]: the “QPatch Kv7.2/7.3 Activity” value was “+/− (1.2-1.99-fold (+/−))”.
For `CC(C)(O)CC(=O)Nc1nn2ccc(Br)cc2c1C1CCC1` [Example 12, N-(5-bromo-3-cyclobutylpyrazolo[1,5-a]pyridin-2-yl)-3-hydroxy-3-methylbutanamide] the value was “+ (2.0-3.99 (+))”; for `CC(C)(O)CC(=O)Nc1nn2ccc(C(F)(F)F)cc2c1-c1ccccc1` [Example 13, 3-hydroxy-3-methyl-N-(3-phenyl-5-(trifluoromethyl)pyrazolo [1,5-a]pyridin-2-yl)butanamide], “+ (2.0-3.99 (+))”; for `COc1ccn2nc(NC(=O)CC(C)(C)O)c(C3CCC3)c2c1` [Example 16, N-(3-cyclobutyl-5-methoxypyrazolo[1,5-a]pyridin-2-yl)-3-hydroxy-3-methylbutanamide], “+/− (1.2-1.99-fold (+/−))”.
For `CC(C)(O)CC(=O)Nc1nn2ccc(C(F)(F)F)cc2c1-c1ccc(Cl)cc1` [Example 17, N-(3-(4-chlorophenyl)-5-(trifluoromethyl)pyrazolo [1,5-a]pyridin-2-yl)-3-hydroxy-3-methylbutanamide] the value was “+ (2.0-3.99 (+))”; for `Cc1ccc(-c2c(NC(=O)CC(C)(C)O)nn3ccc(C(F)(F)F)cc23)cc1` [Example 18, 3-hydroxy-3-methyl-N-(3-(p-tolyl)-5-(trifluoromethyl)pyrazolo [1,5-a]pyridin-2-yl)butanamide], “+ (2.0-3.99 (+))”; for `CC(C)(O)CC(=O)Nc1nn2c(Br)cccc2c1C1CCC1` [Example 19, N-(7-bromo-3-cyclobutylpyrazolo[1,5-a]pyridin-2-yl)-3-hydroxy-3-methylbutanamide], “+ (2.0-3.99 (+))”.
For `O=C(CC1(O)CCCC1)Nc1nn2ccc(Cl)cc2c1C1CCC1` [Example 20, N-(5-chloro-3-cyclobutylpyrazolo[1,5-a]pyridin-2-yl)-2-(1-hydroxycyclopentyl) acetamide], the “QPatch Kv7.2/7.3 Activity” value is given as “+ (2.0-3.99 (+))”.
The result for `O=C(CC1(O)CCCC1)Nc1nn2ccc(C(F)(F)F)cc2c1C1CCC1` [Example 21, N-(3-cyclobutyl-5-(trifluoromethyl)pyrazolo [1,5-a]pyridin-2-yl)-2-(1-hydroxycyclopentyl) acetamide] reads “+ (2.0-3.99 (+))”; that for `O=C(CC1(O)CCC1)Nc1nn2ccc(C(F)(F)F)cc2c1-c1ccc(F)cc1` [Example 22, N-(3-(4-fluorophenyl)-5-(trifluoromethyl)pyrazolo [1,5-a]pyridin-2-yl)-2-(1-hydroxycyclobutyl) acetamide], “+ (2.0-3.99 (+))”.
With `CC(O)(CC(=O)Nc1nn2ccc(C(F)(F)F)cc2c1C1CCC1)C1CCC1` (stereo not shown) [Example 23, 3-cyclobutyl-N-(3-cyclobutyl-5-(trifluoromethyl)pyrazolo [1,5-a]pyridin-2-yl)-3-hydroxybutanamide], the “QPatch Kv7.2/7.3 Activity” value was “+ (2.0-3.99 (+))”.
Regarding `COc1ccn2nc(NC(=O)CC(C)(O)C3CCCC3)c(C3CCC3)c2c1` (stereo not shown) [Example 26, N-(3-cyclobutyl-5-methoxypyrazolo[1,5-a]pyridin-2-yl)-3-cyclopentyl-3-hydroxybutanamide], the “QPatch Kv7.2/7.3 Activity” value is recorded as “+ (2.0-3.99 (+))”.
Take `CC(O)(CC(=O)Nc1nn2ccc(C(F)(F)F)cc2c1C1CCC1)c1ccccc1` (stereo not shown) [Example 27, N-(3-cyclobutyl-5-(trifluoromethyl)pyrazolo [1,5-a]pyridin-2-yl)-3-hydroxy-3-phenylbutanamide]: the “QPatch Kv7.2/7.3 Activity” value is “+ (2.0-3.99 (+))”.
For the molecule `CC(O)(CC(=O)Nc1nn2ccc(C#N)cc2c1C1CCC1)c1ccccc1` (stereo not shown) [Example 28, N-(5-cyano-3-cyclobutylpyrazolo[1,5-a]pyridin-2-yl)-3-hydroxy-3-phenylbutanamide], the “QPatch Kv7.2/7.3 Activity” value is “+/− (1.2-1.99-fold (+/−))”.
For `C[C@](O)(CC(=O)Nc1nn2ccc(C(F)(F)F)cc2c1C1CCC1)c1ccccc1` [Example 29, (S)-N-(3-cyclobutyl-5-(trifluoromethyl)pyrazolo [1,5-a]pyridin-2-yl)-3-hydroxy-3-phenylbutanamide] the value was “++ (4.0-5.99 (++))”; for `C[C@](O)(CC(=O)Nc1nn2ccc(C#N)cc2c1C1CCC1)c1ccccc1` [Example 30, (S)-N-(5-cyano-3-cyclobutylpyrazolo[1,5-a]pyridin-2-yl)-3-hydroxy-3-phenylbutanamide], “+ (2.0-3.99 (+))”; for `C[C@](O)(CC(=O)Nc1nn2ccc(Cl)cc2c1C1CCC1)c1ccccc1` [Example 31, (S)-N-(5-chloro-3-cyclobutylpyrazolo[1,5-a]pyridin-2-yl)-3-hydroxy-3-phenylbutanamide], “+ (2.0-3.99 (+))”.
Turning to `C[C@](O)(CC(=O)Nc1nn2ccc(C(F)(F)F)cc2c1-c1ccc(F)cc1)c1ccccc1` [Example 32, (S)-N-(3-(4-fluorophenyl)-5-(trifluoromethyl)pyrazolo [1,5-a]pyridin-2-yl)-3-hydroxy-3-phenylbutanamide], the “QPatch Kv7.2/7.3 Activity” value is recorded as “+ (2.0-3.99 (+))”.
For `C[C@](O)(CC(=O)Nc1nn2c(Br)cccc2c1C1CCC1)c1ccccc1` [Example 33, (S)-N-(7-bromo-3-cyclobutylpyrazolo[1,5-a]pyridin-2-yl)-3-hydroxy-3-phenylbutanamide] the value was “+ (2.0-3.99 (+))”.
